The assay addresses T1, CES2 (Homo sapiens, UniProt O00748).
T1 construct: tissue Bioreclamation IVT; […]
T1 sequence (O00748 27-559): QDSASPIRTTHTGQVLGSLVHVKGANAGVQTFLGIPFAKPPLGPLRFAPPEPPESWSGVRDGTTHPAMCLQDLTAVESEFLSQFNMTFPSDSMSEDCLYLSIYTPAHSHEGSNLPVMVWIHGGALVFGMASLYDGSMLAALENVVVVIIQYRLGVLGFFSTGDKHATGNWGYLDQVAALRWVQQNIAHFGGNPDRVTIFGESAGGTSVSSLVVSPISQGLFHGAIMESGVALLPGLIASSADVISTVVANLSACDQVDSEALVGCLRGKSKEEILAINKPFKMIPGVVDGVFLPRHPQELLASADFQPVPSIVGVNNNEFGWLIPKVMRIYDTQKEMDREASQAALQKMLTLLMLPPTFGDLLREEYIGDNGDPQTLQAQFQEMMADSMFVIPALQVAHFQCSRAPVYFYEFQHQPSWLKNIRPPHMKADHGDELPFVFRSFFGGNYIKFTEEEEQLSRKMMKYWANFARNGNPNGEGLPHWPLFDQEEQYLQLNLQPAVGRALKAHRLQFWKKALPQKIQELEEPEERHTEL
Kind of assay: Inhibition of CES2-catalyzed FD hydrolysis in HLMs. The following applies: FD as probe substrate, logarithm of IC50 in nM. Type of assay: biochemical. Here is the method: The incubation system contains following components (total volume 200 μL): 2 μL DMSO/inhibitor, 2 μL HLMs (2 μg/ml, final concentration), […] buffer PBS (pH = =7.4).

With Quinatic acid, the “CES2 lg (IC50/nM)” value is recorded as 3.72 ± 0.10.

These data come from paper PMC8167799, “Discovery and Characterization of the Biflavones From Ginkgo biloba as Highly Specific and Potent Inhibitors Against Human Carboxylesterase 2” (Frontiers in Pharmacology, 2021).
